Values quoted from earlier work, collected in US20030022912A1, “Rapid-onset medicament for treatment of sexual dysfunction” (priority 2001, published 2003).

settings: human subjects; sublingual administration; drug as free base except where a footnote notes a salt

Which “sublingual Tmax” value does the source give for `CN1CCc2cccc3c2[C@H]1Cc1ccc(O)c(O)c1-3` [apomorphine] here?
The value was 1.02 h.

Which “sublingual Tmax” value does the source give for `CN(C)CCCN1c2ccccc2CCc2ccc(Cl)cc21` [clomipramine] here?
Its value is 1.5 h.

Which “sublingual Tmax” value does the source give for `COc1c2occc2cc2ccc(=O)oc12` [methoxsalen] here?
Its value is 0.417 h.

With `O=[N+]([O-])OCC(CO[N+](=O)[O-])O[N+](=O)[O-]` [nitroglycerin] as the compound, how does the “sublingual Tmax” value read?
Its value is 0.05 h.

For `C#CCN(C)[C@H](C)Cc1ccccc1` [selegiline], which “sublingual Tmax” value is on record?
The value was 0.167 h.

With `CCCc1nn(C)c2c(=O)[nH]c(-c3cc(S(=O)(=O)N4CCN(C)CC4)ccc3OCC)nc12` [sildenafil] as the compound, how does the “sublingual Tmax” value read?
The value was 1 h.

For `CC(C)NCC(O)c1ccc(NS(C)(=O)=O)cc1` (centres unmarked) [sotalol], which “sublingual Tmax” value is on record?
Its value is 2.1 h.

Which “sublingual Tmax” value does the source give for `CN1C(=O)C(O)N=C(c2ccccc2)c2cc(Cl)ccc21` (centres unmarked) [temazepam] here?
Its value is 1.08 h.
